Results as given in article PMC3161034 (BMC Cancer, 2011).
Like-named read-outs stand apart in the source and are kept apart here.

Tests used:
[1] = tested on: patients with advanced solid tumors; set-up: method as in PMID 17557949; details: monotherapy; cited from earlier work
[2] = tested on: cytochrome P450 (CYP) 3A4; details: cited from earlier work
[3] = tested on: CYP1A2; details: cited from earlier work
[4] = tested on: patients with solid tumors
Experimental: The safety endpoint was the incidence of adverse events. Tumor response rate, as assessed by Response Evaluation Criteria in Solid Tumors (RECIST) in patients with measurable disease, was an exploratory endpoint.
Enrollment of a minimum of six evaluable patients per cohort was planned. If patients discontinued the study before week 5 for any reason other than a DLT, additional patients could be enrolled to meet this goal. The selected motesanib doses (50 mg QD, 100 mg QD, 125 mg QD, and 75 mg BID) were based on the tolerability profiles of motesanib administered as monotherapy and in combination with gemcitabine that were obtained in previous studies. The BID dosing regimen is expected to achieve higher predose motesanib concentrations in the plasma than QD dosing owing to the higher total dose administered and more frequent dosing.
Treatment continued until the end of week 48 (11 cycles), or until disease progression, death, or unacceptable toxicity occurred. Motesanib administration (in cohorts 1-4) began on day 2 of week 2 of the first cycle and continued throughout the study. Patients experiencing continuous clinical benefit (stable disease or response) at the end of 48 weeks were eligible to continue motesanib monotherapy under a separate protocol.
Patients enrolled in cohort 1 received an initial dose of motesanib of 50 mg QD. If ≤ 2 patients experienced a DLT during the first 5 weeks of treatment, enrollment into cohort 2 (motesanib 75 mg BID) and cohort 3 (motesanib 125 mg QD) began simultaneously. If ≤ 2 patients in cohort 3 experienced a DLT in the first 5 weeks of treatment, the 125-mg QD dose would be considered the target once-daily dose.
All adverse events were graded by the investigator according to National Cancer Institute Common Terminology Criteria for Adverse Events (CTCAE) version 3.0. All adverse events were classified according to relatedness to treatment and seriousness. […]

For `CC1(C)CNc2cc(NC(=O)c3cccnc3NCc3ccncc3)ccc21` [motesanib], the “Maximum tolerated dose (MTD)” value [1] is listed as 125 mg QD, the “Effect on CYP3A4” value [2] is listed as “inhibitor” and the “Effect on CYP1A2” value [3] is listed as “inducer”. The “Patients with dose-limiting toxicities, all cohorts” value ([4]; human, in vivo, 5 weeks) was 11 patients, the “Maximum tolerated dose (MTD)” value ([4]; in combination with erlotinib only (150 mg QD)) was 125 mg QD and the “Maximum tolerated dose (MTD)” value ([4]; in combination with gemcitabine (1000 mg/m^2 weekly) and erlotinib (100 mg QD)) was 100 mg QD.
